This assay has as its system 3T3-L1 adipocytes. In words: Glucose uptake activity assay (2-deoxy-D-[3H]glucose uptake). The class given is cell-based. To be noted: 12-well plates, 15 min incubation, FIG. 1. The method, then:
Glucose uptake activity assay. Glucose uptake activity was analyzed by measuring the uptake of 2-deoxy-D-[^3H] glucose as described previously (Sakoda, H, et al. (1999) Diabetes 48: 1365-1371; Garcia de Herreros, A. & Birnbaum, M. J. (1989) J. Biol. Chem. 264: 19994-19999). Briefly, confluent 3T3-L1 adipocytes grown in 12-well plates were washed twice with serum-free DMEM and incubated with 1 mL of the same medium at 37° C. for 2 h. The cells were washed 3 times with Krebs-Ringer-Hepes (KRP) buffer and incubated with 0.9 mL KRP buffer at 37° C. for 30 min. Insulin and/or BE were then added and adipocytes were incubated at 37° C. for 15 min. Glucose uptake was initiated by the addition of 0.1 ml, KRP buffer and 3.7×10^7 Bq/L 2-deoxy-D-[^3H] glucose and 1 mmol/L glucose as final concentrations. After 10 min, glucose uptake was terminated by washing the cells 3 times with cold PBS. The cells were lysed with 0.7 mL of 1% Triton X-100 at 37° C. for 20 min. The radioactivity retained by the cell lysates was determined by a scintillation counter. Nonspecific glucose uptake was measured at a glucose concentration of 100 mmol/L. Assay data were statistically analyzed using the paired Student's t-test, with P<0.05 set as the significant difference level.

As for “insulin: Bovine insulin from Sigma Chemical, positive control”, the “stimulation of glucose uptake in 3T3-L1 adipocytes” value is listed as “could stimulate glucose uptake”.

For the origin of these results see patent US20040258773A1, “Composition and methods for treating subjects with hyperglycemia” (priority 2004, published 2004).
